Data taken from patent US20260256792A1, “TREATMENT OF CHRONIC SPONTANEOUS URTICARIA BY ADMINISTERING (R)-2-[3-[4-AMINO-3-(2-FLUORO-4-PHENOXY-PHENYL)PYRAZOLO[3,4-D]PYRIMIDIN-1-YL]PIPERIDINE-1-CARBONYL]-4-METHYL-4-[4-(OXETAN-3-YL)PIPERAZIN-1-YL]PENT-2-ENENITRILE” (priority 2023, published 2026).

System: moderate-to-severe chronic spontaneous urticaria (CSU)
Test: Phase 2 CSU study: itch severity score over 7 days (ISS7)
Format: in vivo, human
Excerpt: The study comprises a 12 week, randomized, double-blind, placebo-controlled, multi-center, dose-ranging efficacy and safety phase, followed by a 40 week open label extension (OLE) phase (see FIG. 1). The study consists of three phases and an optional OLE phase. […] Clinically, CSU is characterized by the spontaneous and recurrent appearance of pruritic hives. The proposed primary endpoints were the UAS7 at Week 12 in EU and EU reference countries and the ISS7 in the US. Regardless of where a participant was from, all assessments were the same. The UAS7 score is a composite score containing both the HSS7 and the ISS7. This allowed a global assessment of the two key components of urticaria: hives and itch. […] The UAS is a validated PRO measure. […] The daily UAS scores range from 0 to 6 point/day. […] Patients were to complete the UAS using the e-diary. […] The following secondary endpoints were to be analyzed using the same approach as for the primary endpoint: • Change from baseline in UAS7 at Week 4 • Change from baseline in UAS7 at Week 12 (for US and US reference countries) • Change from baseline in ISS7 at Week 12 (except US and US reference countries) • Change from baseline in HSS7 at Week 12

[1] = Week 2, 400 mg BID, Omalizumab-Naïve
[2] = Week 2, 400 mg BID, Prior Omalizumab Use
[3] = Week 2, 400 mg QPM, Omalizumab-Naïve
[4] = Week 2, 400 mg QPM, Prior Omalizumab Use
[5] = Week 2, 400 mg TID, Omalizumab-Naïve
[6] = Week 2, 400 mg TID, Prior Omalizumab Use
[7] = Week 3, 400 mg BID, Omalizumab-Naïve
[8] = Week 3, 400 mg BID, Prior Omalizumab Use
[9] = Week 3, 400 mg QPM, Omalizumab-Naïve
[10] = Week 3, 400 mg QPM, Prior Omalizumab Use
[11] = Week 3, 400 mg TID, Omalizumab-Naïve
[12] = Week 3, 400 mg TID, Prior Omalizumab Use
[13] = Week 4, 400 mg BID, Omalizumab-Naïve
[14] = Week 4, 400 mg BID, Prior Omalizumab Use
[15] = Week 4, 400 mg QPM, Omalizumab-Naïve
[16] = Week 4, 400 mg QPM, Prior Omalizumab Use
[17] = Week 4, 400 mg TID, Omalizumab-Naïve

Structure (SMILES): CC(C)(C=C(C#N)C(=O)N1CCC[C@@H](n2nc(-c3ccc(Oc4ccccc4)cc3F)c3c(N)ncnc32)C1)N1CCN(C2COC2)CC1 [rilzabrutinib, (R)-2-[3-[4-amino-3-(2-fluoro-4-phenoxy-phenyl)pyrazolo[3,4-d]pyrimidin-1-yl]piperidine-1-carbonyl]-4-methyl-4-[4-(oxetan-3-yl)piperazin-1-yl]pent-2-enenitrile]
- ISS7 Percent change from baseline Mean (SD) [1]: −34.40 (31.27) %
- ISS7 Percent change from baseline Median [1]: −25.06%
- ISS7 Change from baseline Mean (SD) [2]: −7.00 (7.04)
- ISS7 Change from baseline Median [2]: −5.50
- ISS7 Mean (SD) [2]: 10.83 (6.85)
- ISS7 Median [2]: 13.50
- ISS7 Percent change from baseline Mean (SD) [2]: −38.76 (40.94) %
- ISS7 Percent change from baseline Median [2]: −28.17%
- ISS7 Change from baseline Mean (SD) [3]: −3.84 (4.75)
- ISS7 Change from baseline Median [3]: −3.00
- ISS7 Median [3]: 12.00
- ISS7 Percent change from baseline Mean (SD) [3]: −22.08 (27.52) %
- ISS7 Percent change from baseline Median [3]: −17.11%
- ISS7 Change from baseline Mean (SD) [4]: −12.00 (NC)
- ISS7 Change from baseline Median [4]: −12.00
- ISS7 Mean (SD) [4]: 9.00 (NC)
- ISS7 Median [4]: 9.00
- ISS7 Percent change from baseline Mean (SD) [4]: −57.14 (NC) %
- ISS7 Percent change from baseline Median [4]: −57.14%
- ISS7 Change from baseline Mean (SD) [5]: −7.29 (6.09)
- ISS7 Change from baseline Median [5]: −7.00
- ISS7 Mean (SD) [5]: 8.40 (5.82)
- ISS7 Median [5]: 8.00
- ISS7 Percent change from baseline Mean (SD) [5]: −46.12 (36.57) %
- ISS7 Percent change from baseline Median [5]: −46.89%
- ISS7 Mean (SD) [6]: 5.50 (6.95)
- ISS7 Median [6]: 4.00
- ISS7 Percent change from baseline Mean (SD) [6]: −69.74 (33.53) %
- ISS7 Percent change from baseline Median [6]: −77.08%
- ISS7 Change from baseline Mean (SD) [7]: −6.29 (5.74)
- ISS7 Change from baseline Median [7]: 5.00
- ISS7 Mean (SD) [7]: 9.16 (6.09)
- ISS7 Median [7]: 9.00
- ISS7 Percent change from baseline Mean (SD) [7]: −40.77 (35.75) %
- ISS7 Percent change from baseline Median [7]: −26.67%
- ISS7 Change from baseline Mean (SD) [8]: −8.31 (8.28)
- ISS7 Change from baseline Median [8]: −9.00
- ISS7 Mean (SD) [8]: 9.53 (7.26)
- ISS7 Percent change from baseline Mean (SD) [8]: −44.35 (43.62) %
- ISS7 Percent change from baseline Median [8]: −47.22%
- ISS7 Change from baseline Mean (SD) [9]: −4.77 (4.84)
- ISS7 Change from baseline Median [9]: −3.67
- ISS7 Mean (SD) [9]: 11.60 (4.68)
- ISS7 Percent change from baseline Mean (SD) [9]: −27.79 (26.72) %
- ISS7 Percent change from baseline Median [9]: −23.81%
- ISS7 Change from baseline Mean (SD) [10]: −12.00 (NC)
- ISS7 Change from baseline Median [10]: −12.00
- ISS7 Mean (SD) [10]: 9.00 (NC)
- ISS7 Median [10]: 9.00
- ISS7 Percent change from baseline Mean (SD) [10]: −57.14 (NC) %
- ISS7 Percent change from baseline Median [10]: −57.14%
- ISS7 Change from baseline Mean (SD) [11]: −7.34 (6.48)
- ISS7 Change from baseline Median [11]: −7.00
- ISS7 Mean (SD) [11]: 8.34 (5.42)
- ISS7 Median [11]: 8.40
- ISS7 Percent change from baseline Mean (SD) [11]: −49.02 (33.06) %
- ISS7 Percent change from baseline Median [11]: −48.53%
- ISS7 Mean (SD) [12]: 5.50 (5.50)
- ISS7 Median [12]: 5.00
- ISS7 Percent change from baseline Mean (SD) [12]: −66.98 (26.87) %
- ISS7 Percent change from baseline Median [12]: −64.58%
- ISS7 Change from baseline Mean (SD) [13]: −6.94 (6.13)
- ISS7 Change from baseline Median [13]: −5.83
- ISS7 Mean (SD) [13]: 8.32 (6.02)
- ISS7 Median [13]: 7.00
- ISS7 Percent change from baseline Mean (SD) [13]: −44.87 (37.61) %
- ISS7 Percent change from baseline Median [13]: −41.67%
- ISS7 Change from baseline Mean (SD) [14]: −11.80 (8.35)
- ISS7 Change from baseline Median [14]: −14.00
- ISS7 Mean (SD) [14]: 6.80 (8.53)
- ISS7 Median [14]: 1.00
- ISS7 Percent change from baseline Mean (SD) [14]: −64.22 (45.05) %
- ISS7 Percent change from baseline Median [14]: −93.33%
- ISS7 Change from baseline Mean (SD) [15]: −4.99 (5.13)
- ISS7 Change from baseline Median [15]: −4.00
- ISS7 Mean (SD) [15]: 11.39 (4.79)
- ISS7 Percent change from baseline Mean (SD) [15]: −28.81 (27.96) %
- ISS7 Percent change from baseline Median [15]: −23.81%
- ISS7 Change from baseline Mean (SD) [16]: −13.00 (NC)
- ISS7 Change from baseline Median [16]: −13.00
- ISS7 Mean (SD) [16]: 8.00 (NC)
- ISS7 Median [16]: 8.00
- ISS7 Percent change from baseline Mean (SD) [16]: −61.90 (NC) %
- ISS7 Percent change from baseline Median [16]: −61.90%
- ISS7 Change from baseline Mean (SD) [17]: −8.30 (5.13)
- ISS7 Change from baseline Median [17]: −8.00
- ISS7 Mean (SD) [17]: 7.79 (5.03)
- ISS7 Median [17]: 7.50
- ISS7 Percent change from baseline Mean (SD) [17]: −51.09 (29.31) %
- ISS7 Percent change from baseline Median [17]: −50.00%
- ISS7 Change from baseline Mean (SD) (Week 4, 400 mg TID, Prior Omalizumab Use): −10.83 (7.32)
